Experiment [1] concerns antibodies of a rabbit immunized with native (intact) HIV p17. The experiment is described as follows: Antibody titers to p17 peptides in a rabbit immunized with native HIV p17 (Figure 4). Type of experiment: binding. The conditions noted are these: rabbit immunized with HPLC-purified native HIV p17, synthetic peptide analogs, result in words.
The subject of experiment [2] is sera from four Rhesus Monkeys given live HIV-1. The experiment is described as follows: ELISA of sera from Rhesus monkeys given live HIV-1 for antibodies to p17 peptides (Figure 5). To be noted: result in words. The experiment is classed as binding. The text has this: • Figure 1 is a schematic drawing illustrating the proposed orientation for the p17 gag protein of HIV; • Figure 2 is a chart depicting the primary amino acid sequences of HIV-1 p17 (strain HB10) and also of the p17 proteins of HIV-2 and SIV; • Figure 3 is another chart depicting the primary amino acid sequence of the peptides in p17; • Figure 4 is a graph plotting antibody titers of HIV p17 peptides in rabbits immunized with native HIV p17; and • Figure 5 is a bar graph illustrating the results of ELISA analysis of sera from 4 Rhesus monkeys exposed to live HIV antibodies to the p17 peptide fragments of this invention.
In another test, sera from four Rhesus Monkeys given live HIV-1 were also evaluated for antibodies to Peptides A, B, C, D and E and the results are shown in Figure 5. […] Sera from individuals who had been naturally exposed to the HIV virus and were seropositive for p17 were also evaluated.
(In general: In an ELISA, binding on a coated surface is turned into a signal by an enzyme label.)

For the substance “Peptide C: p17 gag HIV protein fragment, positions 51-84, formula (IV); sequence only in image I00005 (ETSEGCRQILGQLQPSLQTGSEELRSLYNTVATL; Matrix protein p17; UniProt P04591 52-85, looked up, fragment)”, the antibody titers entry in experiment [1] is recorded as “highest titers”. Also, the antibody response entry in experiment [2] is on record as “strong antibody response in at least one of the challenged monkeys”. Regarding “Peptide B: p17 gag HIV protein fragment, positions 33-50, formula (III); sequence only in image I00004 (IVWASRELERFAVNPGLL; Matrix protein p17; UniProt P04591 34-51, looked up, fragment)”, the antibody response result in experiment [2] is on record as “strong antibody response in at least one of the challenged monkeys”. Still for that read-out and setting: the same measure for “Peptide A: p17 gag HIV protein fragment, positions 1-32, formula (II); sequence only in image I00003 (GARASVLSGGELDRWEKIRLRPGGKKKYKLKH; Matrix protein p17; UniProt P04591 2-33, looked up, fragment)”: “strong antibody response in at least one of the challenged monkeys”.

Source of the values: patent publication EP0426314B1, “HIV related peptides” (VIRAL TECHNOLOGIES, INC., priority 1989, dated 1995).
